According to patent US20250340560A1, “SUBSTITUTED PYRAZOLO[1,5-a]PYRIMIDINES AS BRUTON'S TYROSINE KINASE MODULATORS” (BEIGENE SWITZERLAND GMBH, priority 2013, published 2025):
Counter-ions that a name gives are not always drawn.

These molecules were tested against Recombinant Btk (Homo sapiens (Human), UniProt Q06187) (assay: BTK kinase assay (TR-FRET)). Details: read-out: IC50 (nM) Btk; 1 hour pre-incubation, ATP at Km.
Chain of Recombinant Btk (Q06187 whole entry): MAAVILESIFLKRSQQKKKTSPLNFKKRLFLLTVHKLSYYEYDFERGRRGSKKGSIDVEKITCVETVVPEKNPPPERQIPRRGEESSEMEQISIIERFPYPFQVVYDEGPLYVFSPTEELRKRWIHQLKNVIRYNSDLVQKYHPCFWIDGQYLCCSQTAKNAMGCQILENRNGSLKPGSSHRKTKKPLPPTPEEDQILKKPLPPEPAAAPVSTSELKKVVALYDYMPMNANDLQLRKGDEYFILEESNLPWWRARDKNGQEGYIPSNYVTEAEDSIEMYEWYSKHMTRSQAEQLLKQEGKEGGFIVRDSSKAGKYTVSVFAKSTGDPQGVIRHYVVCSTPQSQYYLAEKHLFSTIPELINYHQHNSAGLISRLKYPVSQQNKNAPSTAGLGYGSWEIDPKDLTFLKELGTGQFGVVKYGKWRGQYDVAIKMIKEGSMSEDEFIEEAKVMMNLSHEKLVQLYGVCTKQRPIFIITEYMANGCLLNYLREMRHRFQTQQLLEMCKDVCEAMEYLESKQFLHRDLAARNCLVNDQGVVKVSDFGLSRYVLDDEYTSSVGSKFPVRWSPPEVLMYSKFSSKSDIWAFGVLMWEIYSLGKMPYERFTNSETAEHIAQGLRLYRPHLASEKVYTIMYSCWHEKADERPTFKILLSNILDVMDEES

Point of comparison: `C=CC(=O)N1CCC(C2CCNc3c(C(N)=O)c(-c4ccc(C)c(OC)c4)nn32)CC1` (centres unmarked) [Compound 174, 7-(1-Acryloylpiperidin-4-yl)-2-(3-methoxy-4-methylphenyl)-4,5,6,7-tetrahydropyrazolo[1,5-a]pyrimidine-3-carboxamide], IC50 4.8 nM. Against it:
- NC(=O)c1c(-c2ccc(Oc3ccccc3)cc2)nn2c1NC[C@H]1CNC[C@H]12 (relative stereo) [Compound 115] — 1700-fold higher, 8200 nM
- NC(=O)c1c(-c2ccc(Oc3ccccc3)cc2)nn2c1[nH]c1cnccc12 [Compound 61, 2-(4-Phenoxyphenyl)-4H-pyrazolo[1′,5′:1,2]imidazo[4,5-c]pyridine-3-carboxamide] — 29-fold higher, 140 nM
- C=CC(=O)N1CCC(c2cc(=O)[nH]c3c(C(N)=O)c(-c4ccc(Oc5ccccc5)cc4)nn23)CC1 [Compound 81] — 1200-fold higher, 5900 nM
- C=CC(=O)N(C)CC1CCNc2c(C(N)=O)c(-c3ccc(Oc4ccccc4)cc3)nn21 (centres unmarked) [Compound 35] — 4.4-fold lower, 1.1 nM
- C=CC(=O)N1CC(C2CCNc3c(C(N)=O)c(-c4ccc(Oc5ccc(Cl)cc5)cc4)nn32)C1 (centres unmarked) [Compound 106, 7-(1-acryloylazetidin-3-yl)-2-(4-(4-chlorophenoxy)phenyl)-4,5,6,7-tetrahydropyrazolo[1,5-a]pyrimidine-3-carboxamide] — 3.4-fold lower, 1.4 nM
- N#CN1CCC([C@@H]2CCNc3c(C(N)=O)c(-c4ccc(Oc5ccccc5)cc4)nn32)CC1 [Compound 182, (S)-7-(1-cyanopiperidin-4-yl)-2-(4-phenoxyphenyl)-4,5,6,7-tetrahydropyrazolo[1,5-a]pyrimidine-3-carboxamide] — 26-fold higher, 124 nM
- NC(=O)c1c(-c2ccc(Oc3ccccc3)cc2)nn2c1NC(=O)Cc1cc(N)ccc1-2 [Compound 74, 8-Amino-5-oxo-2-(4-phenoxyphenyl)-5,6-dihydro-4H-benzo[f]pyrazolo[1,5-a][1,3]diazepine-3-carboxamide] — 50-fold higher, 240 nM
- NC(=O)c1c(-c2ccc(Oc3ccccc3)cc2)nn2c1[nH]c(=O)c1ccc(N)cc12 [Compound 79, 8-Amino-5-oxo-2-(4-phenoxyphenyl)-4,5-dihydropyrazolo[1,5-a]quinazoline-3-carboxamide] — 10-fold higher, 50 nM
- NC(=O)c1c(-c2ccc(Oc3ccc(F)cc3)cc2)nn2c1NCCC2c1ccccc1N (centres unmarked) [Compound 11, 7-(2-Aminophenyl)-2-(4-(4-fluorophenoxy)phenyl)-4,5,6,7-tetrahydro pyrazolo[1,5-a]pyrimidine-3-carboxamide] — 940-fold higher, 4500 nM
- CC#CC(=O)NCC1CCNc2c(C(N)=O)c(-c3ccc(Oc4ccccc4)cc3)nn21 (centres unmarked) [Compound 185, 7-(But-2-ynamidomethyl)-2-(4-phenoxyphenyl)-4,5,6,7-tetrahydropyrazolo[1,5-a]pyrimidine-3-carboxamide] — within 1.5-fold, 4.3 nM
- CC#CC(=O)N1CCC(C2CCNc3c(C(N)=O)c(-c4ccc(Oc5cccc(Cl)c5)cc4)nn32)CC1 (centres unmarked) [Compound 195, 7-(1-(But-2-ynoyl)piperidin-4-yl)-2-(4-(3-chlorophenoxy)phenyl)-4,5,6,7-tetrahydropyrazolo[1,5-a]pyrimidine-3-carboxamide] — 1.7-fold higher, 8 nM
- NC(=O)c1c(-c2ccc(Oc3ccccc3)cc2)nn2c1NCCC21CNC1 [Compound 118, 2′-(4-phenoxyphenyl)-5′,6′-dihydro-4′H-spiro[azetidine-3,7′-pyrazolo[1,5-a]pyrimidine]-3′-carboxamide] — 85-fold higher, 410 nM
- NC(=O)c1c(-c2ccc(Oc3ccccc3)cc2)nn2c3c([nH]c12)CNCC3 [Compound 62, 2-(4-Phenoxyphenyl)-5,6,7,8-tetrahydro-4H-pyrazolo[1′,5′:1,2]imidazo [4,5-c]pyridine-3-carboxamide] — 50-fold higher, 240 nM
- N#CC(=CC1CC1)C(=O)N1CCC([C@@H]2CCNc3c(C(N)=O)c(-c4ccc(Oc5ccccc5)cc4)nn32)CC1 [Compound 181, (S)-7-(1-(2-cyano-3-cyclopropylacryloyl)piperidin-4-yl)-2-(4-phenoxyphenyl)-4,5,6,7-tetrahydropyrazolo[1,5-a]pyrimidine-3-carboxamide] — 5.2-fold higher, 25 nM
- C=CC(=O)NCC1(C)CCNc2c(C(N)=O)c(-c3ccc(Oc4ccccc4)cc3)nn21 (centres unmarked) [Compound 143, 7-(acrylamidomethyl)-7-methyl-2-(4-phenoxyphenyl)-4,5,6,7-tetrahydropyrazolo[1,5-a]pyrimidine-3-carboxamide] — 5.4-fold lower, 0.89 nM
- C=CC(=O)Nc1ccccc1C1CCNc2c(C(N)=O)c(-c3ccc(OC)c(OC)c3)nn21 (centres unmarked) [Compound 168, 7-(2-Acrylamidophenyl)-2-(3,4-dimethoxyphenyl)-4,5,6,7-tetrahydropyrazolo[1,5-a]pyrimidine-3-carboxamide] — within 1.5-fold, 3.2 nM
- N#CCC(=O)N1CCc2[nH]c3c(C(N)=O)c(-c4ccc(Oc5ccccc5)cc4)nn3c2C1 [Compound 56, 7-(2-Cyanoacetyl)-2-(4-phenoxyphenyl)-5,6,7,8-tetrahydro-4H-pyrazolo[5′,1′:2,3]imidazo[4,5-c]pyridine-3-carboxamide] — 23-fold higher, 110 nM
- C=CC(=O)N1CC(C2CCNc3c(C(N)=O)c(-c4ccc(Oc5ccccc5)c(OC)c4)nn32)C1 (centres unmarked) [Compound 140, 7-(1-acryloylazetidin-3-yl)-2-(3-methoxy-4-phenoxyphenyl)-4,5,6,7-tetrahydropyrazolo[1,5-a]pyrimidine-3-carboxamide formate] — 620-fold higher, 3000 nM
- CN(C)CCOc1cccc(C2CNc3c(C(N)=O)c(-c4ccc(Oc5ccccc5)cc4)nn3C2)c1 (centres unmarked) [Compound 91, 6-(3-(2-(Dimethylamino)ethoxy)phenyl)-2-(4-phenoxyphenyl)-4,5,6,7-tetrahydropyrazolo[1,5-a]pyrimidine-3-carboxamide] — 400-fold higher, 1900 nM
- CN(C)C/C=C/C(=O)N1CCCc2[nH]c3c(C(N)=O)c(-c4ccc(Oc5ccccc5)cc4)nn3c2C1 [Compound 124, (E)-8-(4-(dimethylamino)but-2-enoyl)-2-(4-phenoxyphenyl)-4,5,6,7,8,9-hexahydropyrazolo[5′,1′:2,3]imidazo[4,5-c]azepine-3-carboxamide] — 7.7-fold lower, 0.62 nM
- NC(=O)c1c(-c2ccc(Oc3ccccc3)cc2)nn2c1NCCC2c1cccc(N)c1 (centres unmarked) [Compound 2, 7-(3-Aminophenyl)-2-(4-phenoxyphenyl)-4,5,6,7-tetrahydropyrazolo [1,5-a]pyrimidine-3-carboxamide] — 75-fold higher, 360 nM
- CC(C)(C)OC(=O)N1CC2[C@@H](CNc3c(C(N)=O)c(-c4ccc(Oc5ccccc5)cc4)nn32)C1 (single isomer, unassigned) [Compound 114, Cis-7-(1-tert-Butoxycarbonyl)-2-(4-phenoxyphenyl)-5,5a,6,7,8,8a-hexahydro-4H-pyrazolo[1,5-a]pyrrolo[3,4-e]pyrimidine-3-carboxamide] — 1200-fold higher, 6000 nM
- CN(C)C/C=C/C(=O)N1CCc2[nH]c3c(C(N)=O)c(-c4ccc(Oc5ccccc5)cc4)nn3c2CC1 [Compound 122] — 6.2-fold lower, 0.78 nM
- NC(=O)c1c(-c2ccc(Oc3ccccc3)cc2)nn2c1NC(=O)Cc1cc([N+](=O)[O-])ccc1-2 [Compound 73, 8-Nitro-5-oxo-2-(4-phenoxyphenyl)-5,6-dihydro-4H-benzo[f]pyrazolo[1,5-a][1,3]diazepine-3-carboxamide] — higher, > 10000 nM
- C=CC(=O)N1CC(C2CCNc3c(C(N)=O)c(-c4ccc(OCCc5ccccc5)cc4)nn32)C1 (centres unmarked) [Compound 141, 7-(1-acryloylazetidin-3-yl)-2-(4-phenethoxyphenyl)-4,5,6,7-tetrahydropyrazolo[1,5-a]pyrimidine-3-carboxamide] — within 1.5-fold, 7 nM
